The values below come from patent US8669291B2, “Phenyl substituted cycloalkylamines as monoamine reuptake inhibitors” (Sunovion Pharmaceuticals Inc., priority 2007, dated 2014).

The target in one data set is HERG current (Homo sapiens, UniProt Q12809). The data set can be described thus: inhibition of HERG current. The format is cell-based. The source says:
(§1) 4b. In Vitro PK Data (Human Metabolic Stability, Inhibition of CYP450 Enzymes, Inhibition of HERG Current)

In data set [1] the test system is CYP2D6, CYP2C9, CYP3A4, CYP2C19, CYP1A (printed 1a). The experiment in a line: inhibition of CYP450 enzymes. The following applies: 5 isoforms; read-out: CYP inhibition IC50 (microM) 5 isoforms (2D6, 2C9, 3A4, 2C19, 1a). The format is in vitro ADME.
From the text: as §1

For data set [2], the target named is T1, human norepinephrine (NE) reuptake transporter (Homo sapiens, UniProt P23975).
T1 construct: expressed in transfected cells
T1 sequence (P23975 whole entry): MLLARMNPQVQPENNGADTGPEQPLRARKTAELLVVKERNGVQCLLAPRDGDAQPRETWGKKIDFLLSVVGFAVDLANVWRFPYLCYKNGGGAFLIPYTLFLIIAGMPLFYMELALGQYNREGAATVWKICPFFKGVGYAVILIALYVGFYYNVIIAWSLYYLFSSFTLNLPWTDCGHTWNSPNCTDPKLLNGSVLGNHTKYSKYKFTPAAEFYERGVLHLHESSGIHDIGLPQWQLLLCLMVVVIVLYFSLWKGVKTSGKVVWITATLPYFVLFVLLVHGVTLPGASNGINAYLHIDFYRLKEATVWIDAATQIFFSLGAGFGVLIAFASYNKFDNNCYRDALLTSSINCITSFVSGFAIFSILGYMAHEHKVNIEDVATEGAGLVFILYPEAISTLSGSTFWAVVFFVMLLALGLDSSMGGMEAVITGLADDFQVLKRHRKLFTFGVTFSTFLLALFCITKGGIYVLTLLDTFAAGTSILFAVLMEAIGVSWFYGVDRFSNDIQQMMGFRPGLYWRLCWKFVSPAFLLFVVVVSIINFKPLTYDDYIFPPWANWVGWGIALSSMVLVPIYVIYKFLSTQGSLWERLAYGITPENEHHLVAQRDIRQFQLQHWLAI
The data set can be described thus: functional uptake assay, human NE reuptake transporter. The format is cell-based. As to the method: (§2) Compounds were tested for their inhibition of functional uptake of serotonin (5-HT), norepinephrine (NE), and dopamine (DA), in synaptosomes prepared from rat whole brain, hypothalamus, or corpus striatum, respectively, and/or using recombinant human transporters.

Data set [3] has as its system mice. The experiment in a line: Mouse Locomotor Activity. The format is in vivo. The following applies: PO. As to the method:
In order to ensure effects of the compounds on immobility time were not related to a general stimulant effect on baseline motor activity, locomotor activity was assessed using photocell monitored cages (Med-Associates Inc.). Each test chamber was equipped with infrared photocell beams to measure movement of the animals. Horizontal and vertical activity were measured.
Rats or mice were pretreated with vehicle or test compounds and placed back in home cage, following which they were individually placed in locomotor cages and activity was monitored in 1-5 minute intervals for intervals up to 60 min.
(§3) Data were analyzed by one way analysis of variance (ANOVA) followed by post-hoc comparisons where appropriate. An effect was considered significant if p<0.05. Data are represented as the mean and standard error to the mean (s.e.m).

The target of another data set is T2, DA Transporter (DAT) (Mus musculus, UniProt Q61327).
T2 construct: Striatal membranes (200 μL; equivalent to 2 mg wet weight of tissue/tube); from tissue; host or cells: striatum of C57BL/6 mice
T2 sequence (Q61327 whole entry): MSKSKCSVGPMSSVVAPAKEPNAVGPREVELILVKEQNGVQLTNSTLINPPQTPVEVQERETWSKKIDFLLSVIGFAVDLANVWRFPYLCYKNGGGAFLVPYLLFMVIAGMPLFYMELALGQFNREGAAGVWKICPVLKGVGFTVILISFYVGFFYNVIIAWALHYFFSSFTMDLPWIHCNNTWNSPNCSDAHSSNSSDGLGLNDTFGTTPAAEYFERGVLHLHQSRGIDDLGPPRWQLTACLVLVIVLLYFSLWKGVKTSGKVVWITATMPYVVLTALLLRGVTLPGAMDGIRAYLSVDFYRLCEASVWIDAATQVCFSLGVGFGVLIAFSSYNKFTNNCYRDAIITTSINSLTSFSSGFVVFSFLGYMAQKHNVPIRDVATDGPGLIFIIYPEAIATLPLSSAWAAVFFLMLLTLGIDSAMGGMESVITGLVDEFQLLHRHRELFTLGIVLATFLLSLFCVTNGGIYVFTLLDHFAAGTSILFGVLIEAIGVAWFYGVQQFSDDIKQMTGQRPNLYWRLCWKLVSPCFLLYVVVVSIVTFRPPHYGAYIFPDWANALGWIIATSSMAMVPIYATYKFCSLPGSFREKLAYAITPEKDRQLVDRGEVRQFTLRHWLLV
The experiment in a line: ex vivo [3H] WIN 35428 binding to DAT sites in mouse brain. Particulars: mice, 60 minutes after treatment. How it is done:
Receptor occupancy of central noradrenaline (NA), 5-HT and dopamine (DA) transporter sites following peripheral administration of compounds was determined using [^3H] nisoxetine, [^3H] citalopram and [^3H] WIN 35428 binding, respectively. Liquid scintillation counting was used to quantify the radioactivity.
C57BL/6 mice (25-30 g) were dosed orally with either vehicle or compound at 4 dose levels. Mice were sacrificed 60 minutes after treatment. Whole brains were removed and cortex and striata dissected out before being frozen on dry ice. The brain tissue was stored at −20° C. until the day of the assay. The cortex from each hemisphere was frozen separately. One was used to determine occupancy of NA transporter sites and the other occupancy of 5-HT transporter sites. Striatum was used to determine occupancy of DA transporter sites.
Frontal cortex from each hemisphere or striata was homogenized individually in ice-cold assay buffer using a tight fitting glass/Teflon homogenizer and used immediately in the binding assay.
Striatal membranes (200 μL; equivalent to 2 mg wet weight of tissue/tube) were incubated with 25 μL of [^3H] WIN 35428 at a single concentration of 24 nM and either 25 μL of buffer (total binding) or 25 μL of GBR12935 (1 μM; non-specific binding) for 2 h at 4° C. For each animal, two tubes were used for the determination of total binding and two tubes for the determination of non-specific binding.
Membrane bound radioactivity was recovered by filtration under vacuum through Skatron 11731 filters, presoaked in 0.5% PEI, using a Skatron cell harvester. Filters were rapidly washed with ice-cold phosphate buffer and radioactivity (dpm) was determined by liquid scintillation counting (1 mL Packard MV Gold scintillator).
A value for specific binding (dpm) was generated by the subtraction of mean non-specific binding (dpm) from mean total binding (dpm) for each animal. Data are presented as mean specific binding (dpm) and as a percentage of the vehicle-treated control taken as 100%.

For data set [4], the system named is mice. The data set can be described thus: Mouse Tail Suspension Test. In kind it is in vivo. The following applies: PO. As to the method:
The method, which detects antidepressant activity, follows that described by Stéru et al (Psychopharmacology, 85: 367-370 (1985)). Rodents, suspended by the tail, rapidly become immobile. Antidepressants decrease the duration of immobility.
The behavior of the animal was recorded automatically for 5 minutes using a computerized device (Med-Associates Inc.) similar to that developed by Stéru et al (Prog. Neuropsychopharmacol. Exp. Psychiatry 11: 659-671 (1987)). Ten to twelve mice were tested in each group. Compounds were typically evaluated at 3 doses (1-30 mg/kg), administered orally one time: 30-60 minutes before the test, and compared with a vehicle control group. Desipramine (100 mg/kg), administered under the same experimental conditions, was used as the positive reference substance.
as §3

A short description of data set [5]: human metabolic stability (HLM t1/2). The format is in vitro ADME. The following applies: human liver microsomes.
From the text: as §1
In general terms: Microsomes from liver hold many membrane-bound enzymes, among them those of drug oxidation.

In data set [6] the target is T3, human dopamine (DA) reuptake transporter (Homo sapiens, UniProt Q01959).
T3 construct: expressed in transfected cells
T3 sequence (Q01959 whole entry): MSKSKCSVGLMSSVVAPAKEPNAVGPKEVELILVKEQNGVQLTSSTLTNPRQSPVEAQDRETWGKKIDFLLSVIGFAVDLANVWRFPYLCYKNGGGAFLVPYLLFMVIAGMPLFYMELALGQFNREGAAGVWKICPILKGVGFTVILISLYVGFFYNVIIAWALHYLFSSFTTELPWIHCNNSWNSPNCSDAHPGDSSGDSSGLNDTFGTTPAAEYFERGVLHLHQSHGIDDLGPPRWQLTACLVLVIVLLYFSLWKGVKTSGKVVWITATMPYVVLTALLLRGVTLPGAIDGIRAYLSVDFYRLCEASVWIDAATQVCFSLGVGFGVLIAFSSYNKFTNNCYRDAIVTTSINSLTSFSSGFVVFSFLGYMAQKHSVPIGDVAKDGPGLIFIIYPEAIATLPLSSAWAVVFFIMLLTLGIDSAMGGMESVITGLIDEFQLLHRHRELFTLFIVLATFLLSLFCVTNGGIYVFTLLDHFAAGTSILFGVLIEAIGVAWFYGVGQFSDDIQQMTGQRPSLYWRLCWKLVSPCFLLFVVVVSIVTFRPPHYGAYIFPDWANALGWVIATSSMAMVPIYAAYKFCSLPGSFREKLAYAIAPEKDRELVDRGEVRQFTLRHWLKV
The data set can be described thus: functional uptake assay, human DA reuptake transporter. In kind it is cell-based. As to the method: as §2

Data set [7] has as its target T4, human serotonin (5-HT) reuptake transporter (Homo sapiens, UniProt P31645).
T4 construct: expressed in transfected cells
The experiment in a line: functional uptake assay, human 5-HT reuptake transporter. The format is cell-based. The following applies: for pIC50: read-out: 5-HT IC50. As to the method: as §2

Where [8] appears, read: Example 6 summary of selected in vitro data.

pIC50: −log10 of the molar value. Like-named read-outs stand apart in the source and are kept apart here.

T4 sequence (P31645 whole entry): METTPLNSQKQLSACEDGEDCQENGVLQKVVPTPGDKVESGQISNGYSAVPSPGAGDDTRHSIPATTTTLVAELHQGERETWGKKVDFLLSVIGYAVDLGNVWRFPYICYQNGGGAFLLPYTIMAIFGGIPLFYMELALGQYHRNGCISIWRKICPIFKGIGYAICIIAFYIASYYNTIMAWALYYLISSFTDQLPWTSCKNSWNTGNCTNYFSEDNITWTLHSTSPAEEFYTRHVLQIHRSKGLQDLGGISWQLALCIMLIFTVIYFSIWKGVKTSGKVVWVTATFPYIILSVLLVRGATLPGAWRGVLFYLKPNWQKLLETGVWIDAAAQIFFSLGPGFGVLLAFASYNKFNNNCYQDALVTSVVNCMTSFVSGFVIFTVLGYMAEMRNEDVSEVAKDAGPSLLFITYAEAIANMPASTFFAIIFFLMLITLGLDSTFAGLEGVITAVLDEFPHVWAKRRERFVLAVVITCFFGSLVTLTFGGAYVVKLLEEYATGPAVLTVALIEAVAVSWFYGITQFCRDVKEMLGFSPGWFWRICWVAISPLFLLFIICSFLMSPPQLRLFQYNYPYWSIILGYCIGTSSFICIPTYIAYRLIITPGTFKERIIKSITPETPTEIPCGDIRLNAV
Sequence of HERG current (Q12809 whole entry): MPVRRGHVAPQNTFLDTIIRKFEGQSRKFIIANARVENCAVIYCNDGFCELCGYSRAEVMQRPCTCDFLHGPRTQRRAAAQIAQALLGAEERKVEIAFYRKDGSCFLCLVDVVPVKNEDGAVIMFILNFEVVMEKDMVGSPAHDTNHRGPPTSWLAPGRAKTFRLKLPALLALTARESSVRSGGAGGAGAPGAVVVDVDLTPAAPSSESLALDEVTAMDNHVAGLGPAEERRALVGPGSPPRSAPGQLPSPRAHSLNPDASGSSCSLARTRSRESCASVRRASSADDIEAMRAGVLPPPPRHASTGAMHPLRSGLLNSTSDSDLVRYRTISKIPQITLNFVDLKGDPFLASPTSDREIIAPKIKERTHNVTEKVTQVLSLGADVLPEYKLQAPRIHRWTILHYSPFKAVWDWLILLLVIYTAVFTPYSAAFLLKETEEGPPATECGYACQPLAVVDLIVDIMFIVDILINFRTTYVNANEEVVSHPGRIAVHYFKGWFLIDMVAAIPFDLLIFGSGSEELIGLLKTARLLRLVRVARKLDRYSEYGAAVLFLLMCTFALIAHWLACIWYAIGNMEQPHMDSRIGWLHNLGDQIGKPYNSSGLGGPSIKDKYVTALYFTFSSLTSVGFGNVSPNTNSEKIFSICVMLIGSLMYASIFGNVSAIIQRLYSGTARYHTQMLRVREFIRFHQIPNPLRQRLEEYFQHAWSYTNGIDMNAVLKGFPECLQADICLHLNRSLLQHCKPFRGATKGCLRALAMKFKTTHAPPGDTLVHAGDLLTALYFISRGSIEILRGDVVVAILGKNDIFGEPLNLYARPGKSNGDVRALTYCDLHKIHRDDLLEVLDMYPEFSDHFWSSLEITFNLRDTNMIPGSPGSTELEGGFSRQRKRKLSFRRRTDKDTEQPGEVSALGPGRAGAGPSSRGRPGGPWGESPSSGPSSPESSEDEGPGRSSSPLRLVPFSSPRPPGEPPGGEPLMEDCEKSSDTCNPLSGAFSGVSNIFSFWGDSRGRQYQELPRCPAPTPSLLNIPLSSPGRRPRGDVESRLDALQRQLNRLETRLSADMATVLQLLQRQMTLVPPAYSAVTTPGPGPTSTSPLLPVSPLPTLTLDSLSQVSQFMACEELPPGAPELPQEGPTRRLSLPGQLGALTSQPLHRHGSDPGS

Consider `CN(C)C[C@@H]1CCCC[C@@]1(O)c1ccc(Cl)c(Cl)c1` (single isomer, unassigned) [Compound 2, cis-1-(3,4-dichlorophenyl)-2-((dimethylamino)methyl)cyclohexanol], for which the negative logarithm of the IC50 (pIC50) (as a rule, the IC50 on a negative log10 scale, so that one unit is a factor of ten) at HERG current (read-out: HERG IC50) was 4.52 to 4.80; in data set [1] it was less than 4.70; in data set [2] it was 6.70 to 8.00; in [2] (Example 6 summary of selected in vitro data, read-out: NE IC50) it was 6.70 to 8.00; in data set [6] it was 6.70 to 8.00; in data set [6] (Example 6 summary of selected in vitro data, read-out: DA IC50) it was 6.70 to 8.00. Further, the negative-log IC50 (pIC50) in data set [7] (setting [8]) was 5.70 to 9.00. Also, the “Mouse Locomotor Activity Total Distance Traveled ± S.E.M.” value in the data set on mice [3] (0.3 mg/kg) is listed as “** (501-700 (**))”; with mice [3] (1 mg/kg) it was “** (501-700 (**))”; with mice [3] (10 mg/kg) it was “**** (>901 (****))”; in the data set on mice [3] (30 mg/kg), “* (100-500 (*))”. Further, the “% Transporter Occupancy, DAT” value at DA Transporter (DAT) (1 mg/kg PO) is listed as 15%; on DA Transporter (DAT) (3 mg/kg PO), 50%; at DA Transporter (DAT) (10 mg/kg PO), 79%; at DA Transporter (DAT) (30 mg/kg PO) it was 90%. For the same molecule, the “Mouse Tail Suspension Mean Immobility Time ± S.E.M.” value with mice [4] (0.3 mg/kg) is reported as “+++ (171-190 (+++))”; in the data set with mice [4] (1 mg/kg) it was “+++ (171-190 (+++))”; in the data set on mice [4] (10 mg/kg) it was “+ (100-160 (+))”; with mice [4] (30 mg/kg), “+ (100-160 (+))”. Also, in data set [5], the half-life (usually how long it takes for the measured level to halve) was 0.417 to 2.92 h. In data set [7] (5-HT IC50 (nM), Example 4a, human reuptake transporter), the IC50 (in general, the point on the concentration scale where inhibition reaches its midpoint) lay within 7000 to 10000 nM.

For the molecule `CNC[C@@H]1CCCC[C@@]1(O)c1ccc(Cl)c(Cl)c1` [Compound 4], the negative-log IC50 (pIC50) at HERG current is 4.82 to 6.00; in [1], less than 5.00; in [2], 6.70 to 8.00; in data set [6], 6.70 to 8.00; in data set [7] (Example 4a, human reuptake transporter), less than 5.00; in [7] (setting [8]), less than 5.00. Moreover, the IC50 in [2] (read-out: NE IC50 nM, Example 6 summary of selected in vitro data) was in the range of 10 to 200 nM; in data set [6] (read-out: DA IC50 nM, Example 6 summary of selected in vitro data), 10 to 200 nM. In addition, the “Mouse Locomotor Activity Total Distance Traveled ± S.E.M.” value was “** (501-700 (**))” with mice [3] (1 mg/kg), “** (501-700 (**))” with mice [3] (3 mg/kg), “*** (701-900 (***))” in the data set on mice [3] (10 mg/kg) and “* (100-500 (*))” with mice [3] (30 mg/kg). The “Mouse Tail Suspension Mean Immobility Time ± S.E.M.” value was “++++ (>191 (++++))” in the data set on mice [4] (1 mg/kg), “++++ (>191 (++++))” in the data set with mice [4] (3 mg/kg), “+++ (171-190 (+++))” with mice [4] (10 mg/kg) and “+ (100-160 (+))” in the data set with mice [4] (30 mg/kg). In [5], this molecule displayed a half-life of 2.93 to 5.42 h.
